This note sets out measurements from ChEMBL document CHEMBL3507680, “University of Dundee, Gates Library screen for HepG2 cell viability”.

The structures appear in SMILES notation.

This data set can be described thus: Human HepG2 cell viability assay in 384 well format. It is filed as toxicity, cell-based. Further details: dose 125 nL, time 70.5 hour; cytotoxicity at 70.5 h: concentration not given beside the values. The note with it: HepG2 cells, read-out: Inhibition.
With `CCn1c(CN(C)Cc2cnc(C)s2)nc2cc(F)ccc21`, the cytotoxicity at 70.5 h turned out to be 10.8%. For `Cc1ccc2c(CC(=O)N3C[C@@H](O)[C@H](N(C)C)C3)coc2c1` the value was -5.65%; for `COc1cc(C)c(NC(=O)CCn2cccc2)cc1OC`, -6.6%.

With `Cc1noc(C(C)C)c1C(=O)NCCCN1CCNCC1`, the cytotoxicity at 70.5 h is -7.14%.

With `CC(C)(CO)NC(=O)C1CCC(=O)N(Cc2ccc(Cl)cc2)C1` (centres undefined), the cytotoxicity at 70.5 h is -8.51%.

Turning to `Cc1cc(C(=O)N2CC[C@]3(C[C@@H](OCc4ccccn4)CO3)C2)c(C)o1`, the cytotoxicity at 70.5 h amounted to 17.1%. Turning to `COc1cccc2c1OCC(C(=O)NCCc1nnc(C)s1)C2` (centres undefined), the cytotoxicity at 70.5 h is 8.68%. `O=C(N1CCOCC1)N1CCN(c2ccnc3ccsc23)CC1`: the cytotoxicity at 70.5 h came to 39.2%. For `CS(=O)(=O)N1CCO[C@@H]2CN(Cc3ccc(F)cc3)CC[C@@H]2C1` the value was -4.41%; for `CCOC(=O)CNC(=O)c1cc2n(n1)CCCO2`, -11.8%.

As to `CC(NCCn1c(=O)oc2ccccc21)c1ccccn1` (centres undefined), the cytotoxicity at 70.5 h was -5.54%. The value for `CCN(Cc1nc(COC)no1)Cc1cccnc1NC(=O)C(C)(C)C` was -9.55%.

Regarding `CN1C(=O)C2(CCN(Cc3cccnc3)CC2)c2cccc(F)c21`, the cytotoxicity at 70.5 h is -3.56%.

In the case of `c1cc(-c2nnc(C3(c4ccc5c(c4)OCO5)CCOCC3)o2)ccn1`, the cytotoxicity at 70.5 h was -11.2%. Regarding `CC(=O)N1CCC(C(=O)NCCN2CCCC(C)C2)CC1` (centres undefined), the cytotoxicity at 70.5 h was -7.29%. For `Cc1cc(-c2cnc(N3CCSCC3)nc2C(C)C)on1` the value was -0.852%; for `COCc1noc(Cc2cc(Cl)c3c(c2)OCCCO3)n1`, -4.84%. For `COC(=O)CC(c1ccc(OC)c(O)c1)c1oc(C)cc(=O)c1O` (centres undefined) the value was -2.8%. In the case of `NC(=O)C(CNC(=O)CCc1ccccc1)Cc1ccc(F)cc1` (centres undefined), the cytotoxicity at 70.5 h is -2.33%. The value for `O=C(C1CCCO1)N1CC[C@@H]2CN(Cc3ccccc3)S(=O)(=O)[C@@H]2CC1` (some centres undefined) was -6.03%; that for `Cn1cc(CN2CCc3nc4ccccc4c(=O)n3CC2)cn1` was -1.93%; that for `CSc1ccc(CNC2CCN(CCc3ccncc3)CC2)cc1` was -1.82%. For the compound `O=C(c1cccc(O)c1)N1C[C@@H](CN2CCCCC2)[C@@H](CO)C1`, the cytotoxicity at 70.5 h is -4.01%. In the case of `Cc1cc(NC(=O)CN2CCCC(Cn3nc(C)nc3C)C2)n(C)n1` (centres undefined), the cytotoxicity at 70.5 h is -2.11%.

Take `O=C(c1cccc2cccnc12)N1CCCC(n2ccnc2)C1` (centres undefined): the cytotoxicity at 70.5 h was -5.33%.

As to `COc1ccc(CCN2CC(n3nc(C)cc3C)C2)cc1`, the cytotoxicity at 70.5 h was -16.5%.

Regarding `Cc1cnn(CCNCc2ccc(F)cc2Cl)c1`, the cytotoxicity at 70.5 h was -10.2%. In the case of `N#Cc1c2n(c3c(=O)[nH]cnc13)CCCCC2`, the cytotoxicity at 70.5 h came to 2.85%. With `COCC1CN(CCOc2ccc(Cl)cc2)Cc2c1cnn2C` (centres undefined), the cytotoxicity at 70.5 h is -6.25%. The value for `CN1C(=O)CO[C@H](c2ccc(NC(=O)c3cccc(F)c3)cc2)[C@H]1CO` was -0.0128%; that for `Cn1cccc1C(=O)N1CCCn2nc(CCC(=O)NC3CC3)cc2C1` was 9.42%; that for `CCCn1[nH]cc/c1=N\C(=O)CN1CCn2c(nnc2C2CC2)C1` was 8.11%.

Take `CC1c2ccc(F)cc2CCN1C(=O)c1[nH]c(=O)[nH]c(=O)c1N` (centres undefined): the cytotoxicity at 70.5 h was -1.6%. In the case of `CC(=O)Cn1c(C)cc(=O)c2cc(F)ccc21`, the cytotoxicity at 70.5 h worked out at 1.19%. As to `O=C1CO[C@H]2CN(Cc3cccc(F)c3F)C[C@@H]2N1C1CCOCC1`, the cytotoxicity at 70.5 h was 41.9%. For `COCC1CCCN(C(=O)c2ccc(N(C)Cc3cnn(C)c3)nc2)C1` (centres undefined) the value was 26%; for `CS(=O)(=O)CCC(=O)NC1(c2cccc(C(F)(F)F)c2)CCC1`, -24.7%. Regarding `CC1CCN(Cc2cnc(S(=O)(=O)CC3CC3)n2CC2CCCO2)CC1` (centres undefined), the cytotoxicity at 70.5 h worked out at 11.8%.

With `COC(=O)c1ccc(N2CCN(C(=O)c3ccc(=O)n(C)c3)CC2)cc1`, the cytotoxicity at 70.5 h is -5.8%. Turning to `O=C(N1CCOCC(O)C1)C1(c2ccc(Cl)cc2)CCC1` (centres undefined), the cytotoxicity at 70.5 h is 21.7%. For the compound `CCc1nnc(CN2CC(n3cccn3)C2)o1`, the cytotoxicity at 70.5 h was -4.74%. `O=C(c1ccc(C(F)(F)F)nc1)N1CCCC(n2cncn2)C1` (centres undefined): the cytotoxicity at 70.5 h is -1.03%. Consider `Cc1noc(C)c1CCC(=O)Nc1ccn(C)n1`, for which the cytotoxicity at 70.5 h came to 1.75%. For `CC(CNC(=O)NCc1ccco1)CC1(C)OCCO1` (centres undefined) the value was 15.5%. Regarding `N#Cc1c(N2CCCCC2)nsc1-c1cccnc1`, the cytotoxicity at 70.5 h amounted to 25%. Regarding `Cc1nn(C)c(N2CCOCC2)c1CNC1CCCCNC1=O` (centres undefined), the cytotoxicity at 70.5 h is -5.43%. `COCCC(=O)N1CCCC2(CCC(=O)N2CCOC)CC1` (centres undefined): the cytotoxicity at 70.5 h was -7.23%. As to `COc1ccc(F)c(CN2CCCC(O)(CNCc3ccoc3)C2=O)c1` (centres undefined), the cytotoxicity at 70.5 h was -0.0121%. As for `COCCn1ccc(NC(=O)Nc2ccccc2)n1`, the cytotoxicity at 70.5 h was -2.83%. Consider `Cn1c(C(N)=O)cc2c1CN(C(=O)C1CCCN(C3CCCC3)C1)CC2` (centres undefined), for which the cytotoxicity at 70.5 h was -7.9%.

Regarding `O=C(NCCc1nnc2n1CCCCC2)N1CCC2(CCOC2)C1` (centres undefined), the cytotoxicity at 70.5 h is -5.08%. `CN1CCC/C1=N\S(=O)(=O)c1ccc(NC(=O)c2ccco2)cc1`: the cytotoxicity at 70.5 h turned out to be 11.9%.

On to `CC(=O)NCc1nnc2n1CCN(c1nc(C)nc3sccc13)CC2`, for which the cytotoxicity at 70.5 h was -7.13%.

For the compound `CN1CC[C@@H]2[C@@H]1CCN2Cc1ccc2c(c1)OCO2`, the cytotoxicity at 70.5 h was -9.96%. In the case of `CC(Cc1cccs1)C(=O)NCc1cccc(N2CCCC2=O)c1` (centres undefined), the cytotoxicity at 70.5 h is -8.97%. For the compound `Cc1nc(C)n(CC2CCCN(CCOc3ccc(F)cc3)C2)n1` (centres undefined), the cytotoxicity at 70.5 h is -3.5%. On to `N#Cc1cccc(C(=O)N2CCn3c(Cn4cncn4)cnc3C2)c1`, for which the cytotoxicity at 70.5 h is -5.58%. `O=C1CC2(CCN(Cc3ccc4cccc(O)c4n3)CC2)CN1`: the cytotoxicity at 70.5 h was -5.81%.

As to `CC1COCCN1C(=O)Cc1cc(Cl)c2c(c1)OCCCO2` (centres undefined), the cytotoxicity at 70.5 h is -14.3%.

For `CCN1C(=O)C(c2ccccc2)CC12CCN(S(C)(=O)=O)CC2` (centres undefined), the cytotoxicity at 70.5 h was -9.88%. As to `CN(Cc1cncnc1)Cc1cn2c(n1)CN(C1CCOC1)CC2` (centres undefined), the cytotoxicity at 70.5 h is -13.2%. `CCOc1ccc(NC(=O)CN2CCN(c3nccn3C)CC2)cc1`: the cytotoxicity at 70.5 h was -2.94%. On to `N#Cc1ccc(N2CCCN(CC(=O)N3CCC3)CC2)cc1`, for which the cytotoxicity at 70.5 h was -2.99%.

Consider `Nc1nc(CNc2ncnc3c2CCN(Cc2ccoc2)CC3)cs1`, for which the cytotoxicity at 70.5 h worked out at 29%. The value for `CO[C@H]1CN(Cc2nc3ccccc3n2C)C[C@@]12CCCO2` was 7.3%; that for `CCCn1nc2c(cc1=O)CN(Cc1nc(-c3ccoc3)no1)CC2` was -2.82%; that for `CS(=O)(=O)N1CCN2C(=O)N(C3CCCCC3)C[C@H]2C1` was 7.82%. For `CCN1CC2(CC1=O)CN(Cc1cnn(C)c1)CCN(C(C)=O)C2` (centres undefined) the value was -0.943%; for `O=C(c1cc(C2CC2)nc2onc(-c3ccccc3)c12)N1CC[C@H](O)C1`, -4.91%; for `Cc1cc2ccccc2n1CCC(=O)N1CCCC(O)(CN(C)C)CC1` (centres undefined), -0.891%. Take `CCOc1ccc(CN2CCCC(c3nn(C)c(=O)n3CC)C2)cn1` (centres undefined): the cytotoxicity at 70.5 h is -6.89%.

Consider `COc1ncccc1C(=O)N1CC[C@H]2C[C@@H](c3noc(C)n3)O[C@@H]2C1`, for which the cytotoxicity at 70.5 h was -8.55%. The value for `Cc1noc(C)c1CSc1nc(=O)ccn1C(C)C` was -3.07%; that for `CC(C)c1n[nH]c(C2CN(C(=O)CCc3cscn3)CCO2)n1` (centres undefined) was 13.2%; that for `CC(C)N(CCNc1nc(C2CCCC2)nc2c1cnn2C)C(C)C` was -1.41%.

In the case of `CC(C)(C)N1CC(C(=O)N2CCN(CCn3cncn3)CC2)CC1=O` (centres undefined), the cytotoxicity at 70.5 h was -3.91%.

For the compound `COc1ccc(-c2cnc(N(C)C)nc2C2CNCCO2)cc1` (centres undefined), the cytotoxicity at 70.5 h was -4.32%. Regarding `CO[C@H]1CN(C)S(=O)(=O)[C@@]12CCN(Cc1ccccc1)C2`, the cytotoxicity at 70.5 h was -3.43%. The value for `CN1CCOC(C(=O)Nc2ccc3c(c2)nc(C2CC2)n3C)C1` (centres undefined) was -3.17%; that for `Cc1nc(CNC2(C(=O)OC(C)(C)C)CCCC2)oc1C` was -8.39%. The value for `c1cc(CN2CCCCC2)cc(NCc2cc[nH]n2)c1` was 7.51%; that for `COc1ccc2c(c1)CCCN(C(C)C(=O)N1CCCC1)C2` (centres undefined) was -3.36%; that for `CC(C)N1CCC2(CC1)CC(NS(C)(=O)=O)c1ccccc1O2` (centres undefined) was 4.16%. Regarding `COC1CCN(C(=O)CCc2c(C)nc3ccnn3c2C)CC1`, the cytotoxicity at 70.5 h was -0.665%. Take `Cc1csc(CNC(=O)CCCc2cccs2)n1`: the cytotoxicity at 70.5 h is -1.29%.

Regarding `CC(NC(=O)NCCCN1CCCC1=O)c1ccc(Cl)s1` (centres undefined), the cytotoxicity at 70.5 h is -14.2%. Turning to `CCc1nnc2n1CCN(Cc1nc(-c3ccoc3)no1)C2`, the cytotoxicity at 70.5 h is -7.66%. With `Cc1nc(-c2cc(C(=O)N3CCN(C)CC3)c3ccccn23)cn1C`, the cytotoxicity at 70.5 h is -0.647%.

Consider `Cc1ccc(C)c(OC2CCN(C(=O)NCC(=O)N3CCCC3)CC2)c1`, for which the cytotoxicity at 70.5 h is -5.3%. In the case of `N#Cc1ccc(OC2CCN(CC(=O)NCC3CCCO3)CC2)cc1` (centres undefined), the cytotoxicity at 70.5 h was -5%. `Cc1cnn(CCNCc2ccccc2OCc2cccnc2)c1`: the cytotoxicity at 70.5 h was -3.61%. For `Cc1ccc2c(c1C)OCC2NCc1ccc(C#N)cc1` (centres undefined) the value was 16.8%; for `NCC1CN(C(=O)Cn2ncc(N3CCCCC3)cc2=O)CCO1` (centres undefined), -2.61%. For the compound `CC[C@H]1N(CC2CCC2)CCC[C@]12CCC(=O)N2Cc1ccncc1`, the cytotoxicity at 70.5 h is -5.93%. `CC(C)N(CCNC(=O)c1ccc(S(=O)(=O)NC2CC2)cc1)C(C)C`: the cytotoxicity at 70.5 h stood at 25.6%. Turning to `COCC(=O)NC[C@H]1C[C@@H]2CCN1C[C@@H]2CN1CCc2ccccc2C1`, the cytotoxicity at 70.5 h is -12.4%.

Consider `Cn1ccc(CN2CCCN(c3nccs3)CC2)cc1=O`, for which the cytotoxicity at 70.5 h is -1.81%.

As for `CCn1ccnc1CN1CCN(CCC(=O)NC(C)(C)C)CC1C` (centres undefined), the cytotoxicity at 70.5 h was -1.52%. For `CCN(CC)CCSc1ncnc2[nH]ncc12` the value was 1.79%.
